The values that follow are results of earlier work, collected in patent US9289392B2, “Extended release pharmaceutical composition of entacapone or salts thereof” (Wockhardt Ltd., priority 2008, dated 2016).

Structures are written as SMILES.

Take `C[C@@](Cc1ccc(O)c(O)c1)(NN)C(=O)O` [Carbidopa]: the solubility in water result was “slightly soluble”. Turning to `N[C@@H](Cc1ccc(O)c(O)c1)C(=O)O` [Levodopa, (−)-L-α-amino-β-(3,4-dihydroxybenzene) propanoic acid], the solubility in water result is on record as “slightly soluble”.
